ChEMBL document CHEMBL3297716, “Rhapontigenin suppresses cell migration and invasion by inhibiting the PI3K-dependent Rac1 signaling pathway in MDA-MB-231 human breast cancer cells” (J Nat Prod, 2014)
Calls of active or inactive are those of the source. The calls are words filed in the database; no cut-off is given here.

Legend:
MDA-MB-231 [1] = experiment: Effect on total AKT protein level in human MDA-MB-231 cells at 1 to 10 uM after 24 hrs by Western blot analysis; assay type: functional, cell-based
MDA-MB-231 [2] = experiment: Inhibition of PI3K in human MDA-MB-231 cells assessed as inhibition of AKT phosphorylation at 1 to 10 uM after 24 hrs by Western blot analysis; assay type: cell-based
MDA-MB-231 [3] = experiment: Inhibition of PI3K in human MDA-MB-231 cells assessed as inhibition of AKT phosphorylation at 10 to 50 uM after 24 hrs by Western blot analysis; assay type: cell-based
MDA-MB-231 [4] = experiment: Inhibition of PI3K in human MDA-MB-231 cells assessed as downregulation of activated Rac1-GTP protein expression at 50 uM after 30 mins by Western blot analysis; assay type: cell-based
MDA-MB-231 [5] = experiment: Inhibition of PI3K-dependent Rac1 activation in human MDA-MB-231 cells at 50 uM after 30 mins by ELISA relative to untreated control; assay type: cell-based
MDA-MB-231 [6] = experiment: Effect on total LIMK1/2 protein level in human MDA-MB-231 cells at 10 to 50 uM after 24 hrs by Western blot analysis; assay type: functional, cell-based
MDA-MB-231 [7] = experiment: Inhibition of PI3K-dependent Rac1 activation in human MDA-MB-231 cells assessed as downregulation of Arp-3 protein expression at 10 to 50 uM after 24 hrs by Western blot analysis; assay type: cell-based
MDA-MB-231 [8] = experiment: Effect on total PI3K protein level in human MDA-MB-231 cells at 10 to 50 uM after 24 hrs by Western blot analysis; assay type: functional, cell-based
MDA-MB-231 [9] = experiment: Inhibition of PI3K-dependent Rac1 activation in human MDA-MB-231 cells assessed as inhibition of PAK1 phosphorylation at 10 to 50 uM after 24 hrs by Western blot analysis; assay type: cell-based
MDA-MB-231 [10] = experiment: Inhibition of PI3K-dependent Rac1 activation in human MDA-MB-231 cells assessed as inhibition of lamellipodia formation at 50 uM after 24 hrs by rhodamine phalloidin/DAPI staining-based confocal microscopic analysis; assay type: cell-based
MDA-MB-231 [11] = experiment: Inhibition of PI3K-dependent Rac1 activation in human MDA-MB-231 cells at 25 uM after 30 mins by ELISA relative to untreated control; assay type: cell-based
MDA-MB-231 [12] = experiment: Effect on total cofilin protein level in human MDA-MB-231 cells at 10 to 50 uM after 24 hrs by Western blot analysis; assay type: functional, cell-based
MDA-MB-231 [13] = experiment: Effect on total Rac1 protein expression in human MDA-MB-231 cells after 30 mins by Western blot analysis; assay type: functional, cell-based
MDA-MB-231 [14] = experiment: Inhibition of PI3K-dependent Rac1 activation in human MDA-MB-231 cells assessed as downregulation of WAVE-2 protein expression at 10 to 50 uM after 24 hrs by Western blot analysis; assay type: cell-based
MDA-MB-231 [15] = experiment: (§1) Inhibition of PI3K-dependent Rac1 activation in human MDA-MB-231 cells assessed as suppression of serum-induced cell invasion into matrigel at 25 uM preincubated for 30 mins with cells followed by loading into upper well of matrigel coated filter measured after 15 hrs by Boyden chamber analysis relative to control; assay type: cell-based
MDA-MB-231 [16] = experiment: Inhibition of PI3K-dependent Rac1 activation in human MDA-MB-231 cells assessed as downregulation of Arp-2 protein expression at 10 to 50 uM after 24 hrs by Western blot analysis; assay type: cell-based
MDA-MB-231 [17] = experiment: Effect on total AKT protein level in human MDA-MB-231 cells at 10 to 50 uM after 24 hrs by Western blot analysis; assay type: functional, cell-based
Homo sapiens [18] = organism: Homo sapiens; experiment: Inhibition of PI3K-dependent Rac1 activation in human MDA-MB-231 cells assessed as suppression of serum-induced cell migration at 25 uM after 24 hrs by wound-healing assay relative to control; assay type: cell-based
MDA-MB-231 [19] = experiment: Inhibition of PI3K-dependent Rac1 activation in human MDA-MB-231 cells at 10 uM after 30 mins by ELISA relative to untreated control; assay type: cell-based
MDA-MB-231 [20] = experiment: Inhibition of PI3K-dependent Rac1 activation in human MDA-MB-231 cells assessed as inhibition of LIMK1/2 phosphorylation at 10 to 50 uM after 24 hrs by Western blot analysis; assay type: cell-based
MDA-MB-231 [21] = experiment: Cytotoxicity against human MDA-MB-231 cells assessed as cell viability up to 50 uM after 24 hrs by MTT assay; assay type: cell-based; settings: mda-mb-231, 24 h
MDA-MB-231 [22] = experiment: as §1, with “50” for “25”; assay type: cell-based
MDA-MB-231 [23] = experiment: Effect on total PAK1 protein level in human MDA-MB-231 cells at 10 to 50 uM after 24 hrs by Western blot analysis; assay type: functional, cell-based
MDA-MB-231 [24] = experiment: as §1, with “10” for “25”; assay type: cell-based
MDA-MB-231 [25] = experiment: Cytotoxicity against human MDA-MB-231 cells assessed as cell viability at 100 to 200 uM after 24 hrs by MTT assay; assay type: cell-based; settings: mda-mb-231, 24 h
MDA-MB-231 [26] = experiment: Inhibition of PI3K-dependent Rac1 activation in human MDA-MB-231 cells assessed as inhibition of cofilin phosphorylation at 10 to 50 uM after 24 hrs by Western blot analysis; assay type: cell-based
Homo sapiens [27] = organism: Homo sapiens; experiment: Inhibition of PI3K-dependent Rac1 activation in human MDA-MB-231 cells assessed as suppression of serum-induced cell migration at 50 uM after 24 hrs by wound-healing assay relative to control; assay type: cell-based
MDA-MB-231 [28] = experiment: Inhibition of PI3K phosphorylation in human MDA-MB-231 cells at 10 to 50 uM after 24 hrs by Western blot analysis; assay type: cell-based
Homo sapiens [29] = organism: Homo sapiens; experiment: Inhibition of PI3K-dependent Rac1 activation in human MDA-MB-231 cells assessed as suppression of serum-induced cell migration at 10 uM after 24 hrs by wound-healing assay relative to control; assay type: cell-based

`COC[C@H]1OC(=O)c2coc3c2[C@@]1(C)C1=C(C3=O)[C@@H]2CCC(=O)[C@@]2(C)C[C@H]1OC(C)=O` was tested, and the Activity (MDA-MB-231 [1]) was “inactive” and the inhibition (MDA-MB-231 [2]) was “Active”.
For `COc1ccc(/C=C/c2cc(O)cc(O)c2)cc1O`, the inhibition (MDA-MB-231 [3]) was “Active”, the inhibition (MDA-MB-231 [4]) was “Active” and the inhibition (MDA-MB-231 [5]) was 44%. For the same compound, the Activity (MDA-MB-231 [6]) was “inactive”, the inhibition (MDA-MB-231 [7]) was “Active” and the Activity (MDA-MB-231 [8]) was “inactive”. The inhibition (MDA-MB-231 [9]) was “Active”, the inhibition (MDA-MB-231 [10]) was “Active” and the inhibition (MDA-MB-231 [11]) was 25%. For the same compound, the Activity (MDA-MB-231 [12]) was “inactive”, the Activity (MDA-MB-231 [13]) was “inactive” and the inhibition (MDA-MB-231 [14]) was “Active”. For the same compound, the inhibition (MDA-MB-231 [15]) was 50%, the inhibition (MDA-MB-231 [16]) was “Active” and the Activity (MDA-MB-231 [17]) was “inactive”. For the same compound, the inhibition (Homo sapiens [18]) was 44%, the inhibition (MDA-MB-231 [19]) was 17% and the inhibition (MDA-MB-231 [20]) was “Active”. For the same compound, the Activity (MDA-MB-231 [21]) was “Non-toxic”, the inhibition (MDA-MB-231 [22]) was 68% and the Activity (MDA-MB-231 [23]) was “inactive”. The inhibition (MDA-MB-231 [24]) was 26%, the Activity (MDA-MB-231 [25]) was “Toxic” and the inhibition (MDA-MB-231 [26]) was “Active”. The inhibition (Homo sapiens [27]) was 70%, the inhibition (MDA-MB-231 [28]) was “Active” and the inhibition (Homo sapiens [29]) was 25%.
